In patent US8309735B2, “Heterocyclic compounds for the inhibition of integrins and use thereof” (Shire Orphan Therapies GmbH, priority 2006, dated 2012):

Legend:
[1] = target: T1, integrin alpha5beta1 extracellular domain Fc-fusion (Homo sapiens, UniProt P05556+P08648); assay: alpha5beta1 - Fibronectin Binding Assay (competitive ELISA); conditions: inhibition of integrin binding to fibronectin
T1 construct: The integrin alpha5beta1 extracellular domain Fc-fusion was expressed and purified as described; made in house
Description: (§1) The optimal concentrations of integrin and ligand were selected from ELISA binding studies with variable concentrations of both to obtain optimal signal noise ratio for further studies. IC50 studies were performed with fixed concentration of ligand and integrin and a serial dilution of inhibitor. The plates were measured with SpectraMax Plus reader (Molecular Devices). The resulting inhibition curves were analyzed using SoftMaxPro 4.0 software, the turning point describes the IC50 value.
(§2) Fibronectin was purchased from Sigma and fibrinogen from Calbiochem. (EMD Biosciences, Darmstadt, Germany). The integrin alpha5beta1 extracellular domain Fc-fusion was expressed and purified as described (Coe, 2001, J. Biol. Chem., 276, 35854). Integrin alphaIIbbeta3 was purchased form Kordia (Kordia Life Science, Leiden, Netherlands)
1.1. alpha5beta1—Fibronectin Binding Assay
Fibronectin was diluted with coating buffer (15 mM Na2CO3, 35 mM NaHCO3, pH 9.6) and coated with 100 μL/well to Nunc-Immuno maxisorp plates (Nalge Nunc Europe Ltd) over night at 4° C. After discarding the coating solution plates were washed 3 times with buffer 1 (25 mM Tris, pH 7.6, 150 mM NaCl, 1 mM MnCl2, 1 mg/ml BSA) and blocked with 100 μL blocking buffer (3% BSA in PBS 0.1% Tween20) for 1 hour at room temperature. After washing the blocked plates (3 times) with buffer 1, integrin (50 μL) and either inhibitor (serial dilution in buffer 1) or buffer 1 (50 μL) were added to the wells and incubated for one hour at RT. Plates were then washed (3 times) with buffer 1 and incubated with 100 μL of anti-human-Fc-HRP antibody conjugate (Sigma-Aldrich, Taufkirchen, Germany) in buffer 1 for 1 hour at RT. After additional washing steps (3 times) with buffer 150 μL of HRP substrate solution TMB (Seramun, Germany) were added to the wells. Color development was stopped after 3-5 minutes with 50 μL 1 M H2SO4. The developed color was measured at 450 nm and analyzed as described above.

Integrin alphaIIbbeta3 = target: T2, Integrin alphaIIbbeta3 (Homo sapiens, UniProt P05106+P08514); assay: alphaIIbbeta3 - Fibrinogen Binding Assay (competitive ELISA); conditions: inhibition of integrin binding to fibrinogen, read-out: IC50 alphabIIbbeta3
T2 construct: purchased Kordia (Kordia Life Science, Leiden, Netherlands)
T2 sequence (P08514 32-887 limits assumed): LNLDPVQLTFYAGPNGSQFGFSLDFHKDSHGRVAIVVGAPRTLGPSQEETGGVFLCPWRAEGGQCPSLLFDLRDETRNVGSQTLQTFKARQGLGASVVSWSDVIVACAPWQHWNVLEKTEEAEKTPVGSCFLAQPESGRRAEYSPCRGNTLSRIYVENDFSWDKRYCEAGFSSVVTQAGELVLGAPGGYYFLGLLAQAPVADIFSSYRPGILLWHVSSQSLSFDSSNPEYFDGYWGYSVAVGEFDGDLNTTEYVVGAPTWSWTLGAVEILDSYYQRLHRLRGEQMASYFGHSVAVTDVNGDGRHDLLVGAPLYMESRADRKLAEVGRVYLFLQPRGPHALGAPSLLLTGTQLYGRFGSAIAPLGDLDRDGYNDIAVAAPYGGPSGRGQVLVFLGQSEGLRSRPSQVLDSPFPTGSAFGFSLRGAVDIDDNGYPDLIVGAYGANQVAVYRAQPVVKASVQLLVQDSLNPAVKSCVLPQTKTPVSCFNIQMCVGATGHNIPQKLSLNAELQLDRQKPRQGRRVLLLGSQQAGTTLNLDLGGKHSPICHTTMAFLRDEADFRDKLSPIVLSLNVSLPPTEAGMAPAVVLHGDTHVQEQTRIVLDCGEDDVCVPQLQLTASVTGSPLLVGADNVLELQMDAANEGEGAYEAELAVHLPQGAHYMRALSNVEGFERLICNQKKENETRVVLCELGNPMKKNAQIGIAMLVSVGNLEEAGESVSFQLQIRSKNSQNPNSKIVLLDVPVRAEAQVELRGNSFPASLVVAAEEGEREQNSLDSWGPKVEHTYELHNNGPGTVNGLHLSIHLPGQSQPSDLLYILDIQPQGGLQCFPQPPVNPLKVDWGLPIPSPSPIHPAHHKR
T2 sequence (P05106 27-788): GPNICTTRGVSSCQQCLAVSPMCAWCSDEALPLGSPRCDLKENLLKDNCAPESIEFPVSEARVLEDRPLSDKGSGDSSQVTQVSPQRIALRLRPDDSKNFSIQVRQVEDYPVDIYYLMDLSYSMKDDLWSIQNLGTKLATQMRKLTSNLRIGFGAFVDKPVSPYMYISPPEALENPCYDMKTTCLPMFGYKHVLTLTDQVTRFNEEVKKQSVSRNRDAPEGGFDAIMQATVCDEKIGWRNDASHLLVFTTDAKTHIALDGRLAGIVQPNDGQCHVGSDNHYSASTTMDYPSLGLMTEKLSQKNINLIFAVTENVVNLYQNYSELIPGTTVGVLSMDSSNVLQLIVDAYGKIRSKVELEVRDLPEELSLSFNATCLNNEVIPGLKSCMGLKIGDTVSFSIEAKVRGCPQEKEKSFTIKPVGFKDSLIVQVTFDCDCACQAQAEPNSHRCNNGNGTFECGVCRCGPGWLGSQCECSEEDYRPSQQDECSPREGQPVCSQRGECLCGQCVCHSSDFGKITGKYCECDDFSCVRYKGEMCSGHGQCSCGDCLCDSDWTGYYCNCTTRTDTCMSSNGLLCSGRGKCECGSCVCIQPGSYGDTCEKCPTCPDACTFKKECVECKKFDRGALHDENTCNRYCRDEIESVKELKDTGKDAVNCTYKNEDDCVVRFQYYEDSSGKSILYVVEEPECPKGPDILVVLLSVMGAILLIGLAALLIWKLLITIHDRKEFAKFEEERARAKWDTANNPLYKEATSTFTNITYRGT
Description: as §1, §2
1.2. alphaIIbbeta3—Fibrinogen Binding Assay
Fibrinogen was diluted with coating buffer (15 mM Na2CO3, 35 mM NaHCO3, pH 9.6) and coated with 100 μL/well to Nunc-Immuno maxisorp plates over night at 4° C. After discarding the coating solution plates were washed 3 times with buffer 1 (25 mM Tris, pH 7.6, 150 mM NaCl, 1 mM MnCl2, 1 mg/ml BSA) and blocked with 100 μL blocking buffer (3% BSA in PBS 0.1% Tween20) for 1 hour at room temperature. After washing the blocked plates (3 times) with buffer 1, integrin alphaIIbbeta3 (50 μL) and either inhibitor (serial dilution in buffer 3, 25 mM Tris, pH 7.6, 150 mM NaCl, 1 mM MnCl2, 1 mg/ml BSA 1 mM MgCl2, 1 mM CaCl2,) or buffer 3 (50 μL) were added to the wells and incubated for one hour at RT. Plates were then washed (3 times) with buffer 3 and incubated with 100 μL of anti-alphaIIbbeta3 antibody (anti CD41b, Pharmingen) in buffer 3 for 1 hour at RT. Plates were washed (3 times) with buffer 3 and incubated for 1 hour with 100 μL secondary antibody (anti-mouse-HRP conjugate, Sigma) in buffer 3. After additional washing steps (3 times) with buffer 3 50 μL of HRP substrate solution TMB (Seramun) were added to the wells. Color development was stopped after 3-5 minutes with 50 μL 1 M H2SO4. The developed color was measured at 450 nm and analyzed as described above.

| IC50 [1] [nM] | IC50 (Integrin alphaIIbbeta3) [nM] | SMILES |
| --- | --- | --- |
| < 100 | > 1 | Cc1ccnc(NCc2cc(-c3ccc(C[C@H](NC(=O)c4c(C)cc(C)cc4C)C(=O)O)cc3)on2)c1 [Compound 6, 3-(4-{3-[(4-Methyl-pyridin-2-ylamino)-methyl]-isoxazol-5-yl}-phenyl)-2-(2,4,6-trimethyl-benzoylamino)-propionic acid] |
| < 100 | > 1 | Cc1ccnc(NCc2cnc(-c3ccc(C[C@H](NC(=O)c4c(C)cc(C)cc4C)C(=O)O)cc3)s2)c1 [Compound 9, 3-(4-{5-[(4-Methyl-pyridin-2-ylamino)-methyl]-thiazol-2-yl}-phenyl)-2-(2,4,6-trimethyl-benzoylamino)-propionic acid] |
| < 100 | > 1 | Cc1ccnc(NCc2coc(-c3ccc(C[C@H](NC(=O)c4c(C)cc(C)cc4C)C(=O)O)cc3)c2)c1 [Compound 12, 3-(4-{4-[(4-Methyl-pyridin-2-ylamino)-methyl]-furan-2-yl}-phenyl)-2-(2,4,6-trimethyl-benzoylamino)-propionic acid] |
| < 100 | > 1 | Cc1ccnc(NCc2cn(-c3ccc(C[C@H](NC(=O)c4c(C)cc(C)cc4C)C(=O)O)cc3)nn2)c1 [Compound 15, 3-(4-{4-[(4-Methyl-pyridin-2-ylamino)-methyl]-[1,2,3]triazol-1-yl}-phenyl)-2-(2,4,6-trimethyl-benzoylamino)-propionic acid] |
| < 100 | > 1 | Cc1ccnc(NCc2csc(-c3ccc(C[C@H](NC(=O)c4c(C)cc(C)cc4C)C(=O)O)cc3)c2)c1 [Compound 19, 3-(4-{4-[(4-Methyl-pyridin-2-ylamino)-methyl]-thiophen-2-yl}-phenyl)-2-(2,4,6-trimethyl-benzoylamino)-propionic acid] |
| < 100 | > 1 | Cc1ccnc(NCc2ccn(-c3ccc(C[C@H](NC(=O)C4(C)CCCCC4)C(=O)O)cc3)c2)c1 [Compound 22, 2-[(1-Methyl-cyclohexanecarbonyl)-amino]-3-(4-{3-[(4-methyl-pyridin-2-ylamino)-methyl]-pyrrol-1-yl}-phenyl)-propionic acid] |
| < 100 | > 1 | Cc1cc(C)c(C(=O)N[C@@H](Cc2ccc(-n3cc(CNc4nc5ccccc5[nH]4)nn3)cc2)C(=O)O)c(C)c1 [Compound 29, 3-(4-{4-[(1H-Benzoimidazol-2-ylamino)-methyl]-[1,2,3]triazol-1-yl}-phenyl)-2-(2,4,6-trimethyl-benzoylamino)-propionic] |
| < 100 | > 1 | Cc1ccnc(NCc2coc(-c3ccc(C[C@H](NC(=O)c4c(C)cccc4C)C(=O)O)cc3)c2)c1 [Compound 35, 2-(2,6-Dimethyl-benzoylamino)-3-(4-{4-[(4-methyl-pyridin-2-ylamino)-methyl]-furan-2-yl}-phenyl)-propionic acid] |
| < 100 | > 1 | CCc1cccc(C)c1C(=O)N[C@@H](Cc1ccc(-c2cc(CNc3cc(C)ccn3)co2)cc1)C(=O)O [Compound 36, 2-(2-Ethyl-6-methyl-benzoylamino)-3-(4-{4-[(4-methyl-pyridin-2-ylamino)-methyl]-furan-2-yl}-phenyl)-propionic acid] |
| < 100 | > 1 | Cc1ccnc(NCc2coc(-c3ccc(C[C@H](NC(=O)c4c(C)cc(F)cc4C)C(=O)O)cc3)c2)c1 [Compound 37, 2-(4-Fluoro-2,6-dimethyl-benzoylamino)-3-(4-{4-[(4-methyl-pyridin-2-ylamino)-methyl]-furan-2-yl}-phenyl)-propionic acid] |
